Results reported in US20240384350A1, “METHODS OF TREATING CANCER WITH KINASE INHIBITORS” (BOARD OF REGENTS, THE UNIVERSITY OF TEXAS SYSTEM, priority 2021, published 2024).

Experiments:
Assay in all cases: Ba/F3 drug screening, Cell Titer Glo, IC50 Mut/WT
Format in all cases: cell-based
EGFR S768I/V769L = biological target: T1, EGFR S768I/V769L (Homo sapiens, UniProt P00533, S768I/V769L); settings: PACC; S768I/V769L; Ba/F3; 72 hours
T1 construct: host or cells: Ba/F3

EGFR Ex19del G724S = biological target: T2, EGFR Ex19del G724S (Homo sapiens, UniProt P00533, DEL746-750/G724S); settings: PACC; Ex19del G724S; Ba/F3; 72 hours
T2 construct: expressed in transfected cells; host or cells: Ba/F3

EGFR L858R/L718V = biological target: T3, EGFR L858R/L718V (Homo sapiens, UniProt P00533, L718V/L858R); settings: PACC; L858R/L718V; Ba/F3; 72 hours
T3 construct: host or cells: Ba/F3

EGFR E709K = biological target: T4, EGFR E709K (Homo sapiens, UniProt P00533, E709K); settings: PACC; E709K; Ba/F3; 72 hours
T4 construct: expressed in transfected cells; host or cells: Ba/F3
Description: (§1) Data represent the ratio of the IC50 value for a given TKI for cells with a PACC EGFR mutation to the IC50 value for cells with wildtype EGFR.
(§2) Ba/F3 cell generation, drug screening, and IC50 approximations. Ba/F3 cells were obtained as a gift from Dr. Gordon Mills (MD Anderson Cancer Center), and maintained in RPMI (Sigma) containing 10% FBS, 1% penicillin/streptomycin, and 10 ng/ml recombinant mIL-3 (R&D Biosystems). To establish stable Ba/F3 cell lines, Ba/F3 cells were transduced with retroviruses containing mutant EGFR plasmids for 12-24 hours.
(§3) After 48-72 hours of transduction, 2 μg/ml puromycin (Invitrogen) was added to Ba/F3 cell lines in complete RPMI. To select for EGFR positive cell lines, cells were stained with PE-EGFR (Biolegend) and sorted by FACS. After sorting, EGFR positive cells were maintained in RPMI containing 10% FBS, 1% penicillin/streptomycin, and 1 ng/ml EGF to support cell viability. Drug screening was performed as previously described^41,42. Shortly, cells were plated in 384-well plates (Greiner Bio-One) at 2000-3000 cells per well in technical triplicate. Seven different concentrations of TKIs or DMSO vehicle were added to reach a final volume of 40 μL per well. After 72 hours, 11 μL of Cell Titer Glo (Promega) was added to each well. Plates were incubated for a minimum of 10 minutes, and bioluminescence was determined using a FLUOstar OPTIMA plate reader (BMG LABTECH). Raw bioluminescence values were normalized to DMSO control treated cells, and values were plotted in GraphPad Prism. […] Drug screens were performed in technical triplicate on each plate and either duplicate or triplicate biological replicates.

EGFR S768dupSVD = biological target: T5, EGFR S768dupSVD (Homo sapiens, UniProt P00533, DUP768-770); settings: Ex20, 72 hours
T5 construct: expressed in transfected cells; host or cells: Ba/F3 cells, retroviral pBabe-Puro vector

EGFR S768I V774M = biological target: T6, EGFR S768I V774M (Homo sapiens, UniProt P00533, S768I/V774M); settings: PACC; S768I V774M; Ba/F3; 72 hours
T6 construct: host or cells: Ba/F3
Description: as §1, §2, §3

EGFR L858R/C797S = biological target: T7, EGFR L858R/C797S (Homo sapiens, UniProt P00533, C797S/L858R); settings: PACC; L858R/C797S; Ba/F3; 72 hours
T7 construct: expressed in transfected cells; host or cells: Ba/F3

EGFR L858R/V834L = biological target: T8, EGFR L858R/V834L (Homo sapiens, UniProt P00533, L858R/V834L); settings: Classical-Like, 72 hours
T8 construct: expressed in transfected cells; host or cells: Ba/F3 cells, retroviral pBabe-Puro vector
Description: (§4) Data represent the ratio of the IC50 value for a given TKI for cells with a classical-like EGFR mutation to the IC50 value for cells with wildtype EGFR.
as §2
(§5) After 48-72 hours of transduction, 2 μg/ml puromycin (Invitrogen) was added to Ba/F3 cell lines in complete RPMI. To select for EGFR positive cell lines, cells were stained with PE-EGFR (Biolegend) and sorted by FACS. After sorting, EGFR positive cells were maintained in RPMI containing 10% FBS, 1% penicillin/streptomycin, and 1 ng/ml EGF to support cell viability. […] Shortly, cells were plated in 384-well plates (Greiner Bio-One) at 2000-3000 cells per well in technical triplicate. Seven different concentrations of TKIs or DMSO vehicle were added to reach a final volume of 40 μL per well. After 72 hours, 11 μL of Cell Titer Glo (Promega) was added to each well. Plates were incubated for a minimum of 10 minutes, and bioluminescence was determined using a FLUOstar OPTIMA plate reader (BMG LABTECH). Raw bioluminescence values were normalized to DMSO control treated cells, and values were plotted in GraphPad Prism. […] Drug screens were performed in technical triplicate on each plate and either duplicate or triplicate biological replicates.

EGFR Ex19del T854I = biological target: T9, EGFR Ex19del T854I (Homo sapiens, UniProt P00533, DEL746-750/T854I); settings: PACC; Ex19del T854I; Ba/F3; 72 hours
T9 construct: expressed in transfected cells; host or cells: Ba/F3 (retroviral transduction, pBabe-Puro based vectors)

EGFR Ex19del/L792H = biological target: T10, EGFR Ex19del/L792H (Homo sapiens, UniProt P00533, DEL746-750/L792H); settings: PACC; Ex19del/L792H; Ba/F3; 72 hours
T10 construct: expressed in transfected cells; host or cells: Ba/F3

EGFR Ex19del = biological target: T11, EGFR Ex19del (Homo sapiens, UniProt P00533, DEL746-750); settings: Classical-Like, 72 hours
T11 construct: expressed in transfected cells; host or cells: Ba/F3 cells, retroviral pBabe-Puro vector

EGFR L858R/T790M/C797S = biological target: T12, EGFR L858R/T790M/C797S (Homo sapiens, UniProt P00533, C797S/L858R/T790M); settings: T790M-like-3R, 72 hours
T12 construct: expressed in transfected cells; host or cells: Ba/F3

EGFR H773insNPH = biological target: T13, EGFR H773insNPH (Homo sapiens, UniProt P00533, INS773NPH); settings: Ex20, 72 hours
T13 construct: expressed in transfected cells; host or cells: Ba/F3 cells, retroviral pBabe-Puro vector

EGFR D761N = biological target: T14, EGFR D761N (Homo sapiens, UniProt P00533, D761N); settings: Classical-Like, 72 hours
T14 construct: expressed in transfected cells; host or cells: Ba/F3 cells, retroviral pBabe-Puro vector

EGFR K757R = biological target: T15, EGFR K757R (Homo sapiens, UniProt P00533, K757R); settings: PACC; K757R; Ba/F3; 72 hours
T15 construct: expressed in transfected cells; host or cells: Ba/F3
Description: as §1, §2
After 48-72 hours of transduction, 2 μg/ml puromycin (Invitrogen) was added to Ba/F3 cell lines in complete RPMI. To select for EGFR positive cell lines, cells were stained with PE-EGFR (Biolegend) and sorted by FACS. After sorting, EGFR positive cells were maintained in RPMI containing 10% FBS, 1% penicillin/streptomycin, and 1 ng/ml EGF to support cell viability. Drug screening was performed as previously described^41,42. Shortly, cells were plated in 384-well plates (Greiner Bio-One) at 2000-3000 cells per well in technical triplicate. Seven different concentrations of TKIs or DMSO vehicle were added to reach a final volume of 40 μL per well. After 72 hours, 11 μL of Cell Titer Glo (Promega) was added to each well. Plates were incubated for a minimum of 10 minutes, and bioluminescence was determined using a FLUOstar OPTIMA plate reader (BMG LABTECH). Raw bioluminescence values were normalized to DMSO control treated cells, and values were plotted in GraphPad Prism. […] Drug screens were performed in technical triplicate on each plate and either duplicate or triplicate biological replicates. […] Statistical differences between groups were determined by ANOVA as described in the figure legends.

EGFR L858R/L792H = biological target: T16, EGFR L858R/L792H (Homo sapiens, UniProt P00533, L792H/L858R); settings: PACC; L858R/L792H; Ba/F3; 72 hours
T16 construct: expressed in transfected cells; host or cells: Ba/F3

EGFR L718Q T790M = biological target: T17, EGFR L718Q T790M (Homo sapiens, UniProt P00533, L718Q/T790M); settings: T790M-like-3R, 72 hours
T17 construct: expressed in transfected cells; host or cells: Ba/F3

EGFR S784F = biological target: T18, EGFR S784F (Homo sapiens, UniProt P00533, S784F); settings: Classical-Like, 72 hours
T18 construct: expressed in transfected cells; host or cells: Ba/F3 cells, retroviral pBabe-Puro vector (vector made by GeneScript from EGFR WT)
Description: as §4, §2, §5

EGFR L858R = biological target: T19, EGFR L858R (Homo sapiens, UniProt P00533, L858R); settings: Classical-Like, 72 hours
T19 construct: expressed in transfected cells; host or cells: Ba/F3 cells, retroviral pBabe-Puro vector

EGFR Ex19del T790M = biological target: T20, EGFR Ex19del T790M (Homo sapiens, UniProt P00533, DEL746-750/T790M); settings: T790M-like-3S, 72 hours
T20 construct: expressed in transfected cells; host or cells: Ba/F3
Description: Data represent the ratio of the IC50 value for a given TKI for cells with a T790M-like-3S EGFR mutation to the IC50 value for cells with wildtype EGFR.
as §2, §3

EGFR E709A = biological target: T21, EGFR E709A (Homo sapiens, UniProt P00533, E709A); settings: PACC; E709A; Ba/F3; 72 hours
T21 construct: expressed in transfected cells; host or cells: Ba/F3
Description: as §1, §2, §3

EGFR Ex19del L718V = biological target: T22, EGFR Ex19del L718V (Homo sapiens, UniProt P00533, DEL746-750/L718V); settings: PACC; Ex19del L718V; Ba/F3; 72 hours
T22 construct: expressed in transfected cells; host or cells: Ba/F3

EGFR Ex19del/T790M/L792H = biological target: T23, EGFR Ex19del/T790M/L792H (Homo sapiens, UniProt P00533, DEL746-750/L792H/T790M); settings: T790M-like-3R, 72 hours
T23 construct: expressed in transfected cells; host or cells: Ba/F3

EGFR V774M = biological target: T24, EGFR V774M (Homo sapiens, UniProt P00533, V774M); settings: PACC; V774M; Ba/F3; 72 hours
T24 construct: host or cells: Ba/F3
Description: as §1, §2, §3

EGFR T725M = biological target: T25, EGFR T725M (Homo sapiens, UniProt P00533, T725M); settings: Classical-Like, 72 hours
T25 construct: expressed in transfected cells; host or cells: Ba/F3 cells, retroviral pBabe-Puro vector (vector made by GeneScript from EGFR WT)

EGFR G719A/R776C = biological target: T26, EGFR G719A/R776C (Homo sapiens, UniProt P00533, G719A/R776C); settings: PACC; G719A/R776C; Ba/F3; 72 hours
T26 construct: expressed in transfected cells; host or cells: Ba/F3
Description: as §1, §2, §3

Compound: CN(C)C/C=C/C(=O)Nc1cc2c(Nc3ccc(Cl)c(Br)c3)ncnc2cn1 [Tarlox-TKI]
- ratio of IC50 for cells with mutant EGFR to IC50 for cells with wildtype EGFR (Mut/WT) (EGFR S768I/V769L): 0.713
- ratio of IC50 for cells with mutant EGFR to IC50 for cells with wildtype EGFR (Mut/WT) (EGFR Ex19del G724S): 2.658
- ratio of IC50 for cells with mutant EGFR to IC50 for cells with wildtype EGFR (Mut/WT) (EGFR L858R/L718V): 0.3578
- ratio of IC50 for cells with mutant EGFR to IC50 for cells with wildtype EGFR (Mut/WT) (EGFR E709K): 0.03467
- ratio of IC50 for cells with mutant EGFR to IC50 for cells with wildtype EGFR (Mut/WT) (EGFR S768dupSVD): 0.3065
- ratio of IC50 for cells with mutant EGFR to IC50 for cells with wildtype EGFR (Mut/WT) (EGFR S768I V774M): 0.2117
- ratio of IC50 for cells with mutant EGFR to IC50 for cells with wildtype EGFR (Mut/WT) (EGFR L858R/C797S): 0.7434
- ratio of IC50 for cells with mutant EGFR to IC50 for cells with wildtype EGFR (Mut/WT) (EGFR L858R/V834L): 0.002571
- ratio of IC50 for cells with mutant EGFR to IC50 for cells with wildtype EGFR (Mut/WT) (EGFR Ex19del T854I): 0.7019
- ratio of IC50 for cells with mutant EGFR to IC50 for cells with wildtype EGFR (Mut/WT) (EGFR Ex19del/L792H): 1.041
- ratio of IC50 for cells with mutant EGFR to IC50 for cells with wildtype EGFR (Mut/WT) (EGFR Ex19del): 0.01427
- ratio of IC50 for cells with mutant EGFR to IC50 for cells with wildtype EGFR (Mut/WT) (EGFR L858R/T790M/C797S): 20.7
- ratio of IC50 for cells with mutant EGFR to IC50 for cells with wildtype EGFR (Mut/WT) (EGFR H773insNPH): 11.56
- ratio of IC50 for cells with mutant EGFR to IC50 for cells with wildtype EGFR (Mut/WT) (EGFR D761N): 0.1319
- ratio of IC50 for cells with mutant EGFR to IC50 for cells with wildtype EGFR (Mut/WT) (EGFR K757R): 0.3019
- ratio of IC50 for cells with mutant EGFR to IC50 for cells with wildtype EGFR (Mut/WT) (EGFR L858R/L792H): 0.346
- ratio of IC50 for cells with mutant EGFR to IC50 for cells with wildtype EGFR (Mut/WT) (EGFR L718Q T790M): 16.46
- ratio of IC50 for cells with mutant EGFR to IC50 for cells with wildtype EGFR (Mut/WT) (EGFR S784F): 0.01816
- ratio of IC50 for cells with mutant EGFR to IC50 for cells with wildtype EGFR (Mut/WT) (EGFR L858R): 0.1181
- ratio of IC50 for cells with mutant EGFR to IC50 for cells with wildtype EGFR (Mut/WT) (EGFR Ex19del T790M): 14.38
- ratio of IC50 for cells with mutant EGFR to IC50 for cells with wildtype EGFR (Mut/WT) (EGFR E709A): 0.4803
- ratio of IC50 for cells with mutant EGFR to IC50 for cells with wildtype EGFR (Mut/WT) (EGFR Ex19del L718V): 0.1214
- ratio of IC50 for cells with mutant EGFR to IC50 for cells with wildtype EGFR (Mut/WT) (EGFR Ex19del/T790M/L792H): 74.97
- ratio of IC50 for cells with mutant EGFR to IC50 for cells with wildtype EGFR (Mut/WT) (EGFR V774M): 0.2507
- ratio of IC50 for cells with mutant EGFR to IC50 for cells with wildtype EGFR (Mut/WT) (EGFR T725M): 0.004861
- ratio of IC50 for cells with mutant EGFR to IC50 for cells with wildtype EGFR (Mut/WT) (EGFR G719A/R776C): 0.03266
